Reference: patent US12667572B2, “Tricyclic compounds useful in the treatment of cancer, autoimmune and inflammatory disorders” (SCHRÖDINGER, INC., priority 2021, dated 2026)

Target: T1, full-length MALT1 protein His-MALT1(1-824) (Homo sapiens, UniProt Q9UDY8)
T1 construct: full-length MALT1 protein His-MALT1(1-824); His (N); made in house; host or cells: baculovirus-infected insect cells
T1 sequence (Q9UDY8 1-824): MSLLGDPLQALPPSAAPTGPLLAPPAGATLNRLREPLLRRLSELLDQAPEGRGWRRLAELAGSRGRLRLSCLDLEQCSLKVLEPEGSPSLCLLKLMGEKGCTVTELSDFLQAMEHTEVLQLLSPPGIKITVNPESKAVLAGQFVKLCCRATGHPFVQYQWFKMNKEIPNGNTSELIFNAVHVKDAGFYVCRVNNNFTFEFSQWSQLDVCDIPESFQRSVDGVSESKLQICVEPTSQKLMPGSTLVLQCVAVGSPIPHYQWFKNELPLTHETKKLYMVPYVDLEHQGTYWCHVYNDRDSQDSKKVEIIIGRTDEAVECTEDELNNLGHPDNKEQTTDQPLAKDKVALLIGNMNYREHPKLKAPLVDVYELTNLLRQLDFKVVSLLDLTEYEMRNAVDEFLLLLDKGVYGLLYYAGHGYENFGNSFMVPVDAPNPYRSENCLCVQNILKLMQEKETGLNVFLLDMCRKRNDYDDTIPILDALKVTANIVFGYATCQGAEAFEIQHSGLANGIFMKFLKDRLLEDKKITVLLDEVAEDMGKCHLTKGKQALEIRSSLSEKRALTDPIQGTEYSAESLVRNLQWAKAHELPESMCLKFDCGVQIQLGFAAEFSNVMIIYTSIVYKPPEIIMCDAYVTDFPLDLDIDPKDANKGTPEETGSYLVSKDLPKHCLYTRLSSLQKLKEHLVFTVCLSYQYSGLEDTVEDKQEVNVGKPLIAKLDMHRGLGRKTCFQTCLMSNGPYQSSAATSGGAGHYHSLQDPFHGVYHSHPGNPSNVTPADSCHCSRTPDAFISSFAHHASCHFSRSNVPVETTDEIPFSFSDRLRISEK
Experiment: MALT1 protease assay, Assay 2 (1 nM MALT1, Ac-LRSR-AMC substrate)
Format: biochemical
Settings: 1 nM MALT1, 50 μM Ac-LRSR-AMC, 2 h pre-incubation, 8 hr incubation at RT
Summary of the method: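 Compounds (0.1% DMSO final) sat 2 h at RT with insect-cell-expressed His-MALT1(1-824), in 50 mM Tris pH 7.5, 600 mM sodium citrate, 1 mM DTT, 1 mM EDTA, 0.05% BSA. Cleavage of 50 μM Ac-LRSR-AMC (Km ~100 μM) ran 8 h at RT, read as AMC fluorescence. IC50 and Hill coefficient fitted to % remaining activity.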

| IC50 [nM] | SMILES |
| --- | --- |
| 100 to 1000 | CC1(C)C[C@@H](C(=O)Nc2cnc(-n3nccn3)c(Cl)c2)c2cnn3cc(C(F)F)nc3c21 (single isomer, unassigned) [Example 202, N-(5-chloro-6-(2H-1,2,3-triazol-2-yl)pyridin-3-yl)-2-(difluoromethyl)-9,9-dimethyl-8,9-dihydro-7H-cyclopenta[d]imidazo[1,2-b]pyridazine-7-carboxamide] |
| 10 to 100 | CC1(C)CC(C(=O)Nc2cnc(-n3nccn3)c(Cl)c2)c2cnn3cc(C(F)F)nc3c21 (single isomer, unassigned) [Example 203, N-(5-chloro-6-(2H-1,2,3-triazol-2-yl)pyridin-3-yl)-2-(difluoromethyl)-9,9-dimethyl-8,9-dihydro-7H-cyclopenta[d]imidazo[1,2-b]pyridazine-7-carboxamide] |
| 10 to 100 | CC1(C)CC(C(=O)Nc2cc(C(F)F)c(-n3nccn3)c(=O)[nH]2)c2cnc3cc(Cl)nn3c21 (centres unmarked) [Example 61, 2-chloro-N-(4-(difluoromethyl)-6-oxo-5˜(2H-1,2,3-triazol-2-yl)-1,6-dihydropyridin-2-yl)-8,8-dimethyl-7,8-dihydro-6H-cyclopenta[e]pyrazolo[1,5-a]pyrimidine-6-carboxamide] |
| 10 to 100 | CC1(C)CC(C(=O)Nc2cnc(-n3ncnn3)c(Cl)c2)c2cnc3cc(Cl)nn3c21 (centres unmarked) [Example 120, 2-chloro-N-(5-chloro-6-(2H-tetrazol-2-yl)pyridin-3-yl)-8,8-dimethyl-7,8-dihydro-6H-cyclopenta[e]pyrazolo[1,5-a]pyrimidine-6-carboxamide] |
| ≥ 1000 | CC1(C)CC(C(=O)Nc2cnc(-n3ncc(C#N)n3)c(Cl)c2)c2cnc3cc(Cl)nn3c21 (centres unmarked) [Example 137, 2-chloro-N-(5-chloro-6-(4-cyano-2H-1,2,3-triazol-2-yl)pyridin-3-yl)-8,8-dimethyl-7,8-dihydro-6H-cyclopenta[e]pyrazolo[1,5-a]pyrimidine-6-carboxamide] |
| ≥ 1000 | O=C(Nc1cnc(-n2nccn2)c(Cl)c1)C1CC2(COC2)c2c1cnc1cc(Cl)nn21 (centres unmarked) [Example 165, 2-chloro-N-(5-chloro-6-(2H-1,2,3-triazol-2-yl)pyridin-3-yl)-6,7-dihydrospiro[cyclopenta[e]pyrazolo[1,5-a]pyrimidine-8,3′-oxetane]-6-carboxamide] |
| 10 to 100 | Cc1cc2c(F)cc3c(n2n1)C(C)(C)CC3C(=O)Nc1cnc(-n2nccn2)c(Cl)c1 (centres unmarked) [Example 171, N-(5-chloro-6-(2H-1,2,3-triazol-2-yl)pyridin-3-yl)-4-fluoro-2,8,8-trimethyl-7,8-dihydro-6H-cyclopenta[e]pyrazolo[1,5-a]pyridine-6-carboxamide] |

Second part, the compound before the results:

| SMILES | IC50 [nM] |
| --- | --- |
| CC1(C)CC(C(=O)Nc2cc(C(F)F)c(-c3cc[nH]n3)c(=O)[nH]2)c2cnc3cc(Cl)nn3c21 (centres unmarked) [Example 43, 2-chloro-N-(4-(difluoromethyl)-6-oxo-5˜(1H-pyrazol-3-yl)-1,6-dihydropyridin-2-yl)-8,8-dimethyl-7,8-dihydro-6H-cyclopenta[e]pyrazolo[1,5a]pyrimidine-6-carboxamide] | 10 to 100 |
| CC1(C)CC(C(=O)Nc2cc(C(F)F)c(-c3c[nH]cn3)c(=O)[nH]2)c2cnc3cc(Cl)nn3c21 (centres unmarked) [Example 48, 2-chloro-N-(4-(difluoromethyl)-5˜(1H-imidazol-4-yl)-6-oxo-1,6-dihydropyridin-2-yl)-8,8-dimethyl-7,8-dihydro-6H-cyclopenta[e]pyrazolo[1,5-a]pyrimidine-6-carboxamide] | 10 to 100 |
| CC1(C)CC(C(=O)Nc2cc(C(F)F)c(-c3cnco3)c(=O)[nH]2)c2cnc3cc(Cl)nn3c21 (centres unmarked) [Example 59, 2-chloro-N-(4-(difluoromethyl)-5˜(oxazol-5-yl)-6-oxo-1,6-dihydropyridin-2-yl)-8,8-dimethyl-7,8-dihydro-6H-cyclopenta[e]pyrazolo[1,5-a]pyrimidine-6-carboxamide] | 10 to 100 |
| CC1(C)CC(C(=O)Nc2cc(C(F)F)c(-c3ccno3)c(=O)[nH]2)c2cnc3cc(Cl)nn3c21 (centres unmarked) [Example 60, 2-chloro-N-(4-(difluoromethyl)-5-(isoxazol-5-yl)-6-oxo-1,6-dihydropyridin-2-yl)-8,8-dimethyl-7,8-dihydro-6H-cyclopenta[e]pyrazolo[1,5-a]pyrimidine-6-carboxamide] | 100 to 1000 |
| CC1(C)CC(C(=O)Nc2cc(C(F)F)c(-n3cccn3)c(=O)[nH]2)c2cnc3cc(Cl)nn3c21 (centres unmarked) [Example 62, 2-chloro-N-(4-(difluoromethyl)-6-oxo-5-(1H-pyrazol-1-yl)-1,6-dihydropyridin-2-yl)-8,8-dimethyl-7,8-dihydro-6H-cyclopenta[e]pyrazolo[1,5-a]pyrimidine-6-carboxamide] | 10 to 100 |
| CC1(C)CC(O)(C(=O)Nc2cnc(-n3nccn3)c(Cl)c2)c2cnc3cc(Cl)nn3c21 (centres unmarked) [Example 69, 2-chloro-N-(5-chloro-6-(2H-1,2,3-triazol-2-yl)pyridin-3-yl)-6-hydroxy-8,8-dimethyl-7,8-dihydro-6H-cyclopenta[e]pyrazolo[1,5-a]pyrimidine-6-carboxamide] | ≥ 1000 |
| N#Cc1cc(NC(=O)C2CC3(CC3)c3c2cnc2cc(F)nn32)cnc1OC(F)F (centres unmarked) [Example 82, N-(5-cyano-6-(difluoromethoxy)pyridin-3-yl)-2-fluoro-6,7-dihydrospiro[cyclopenta[e]pyrazolo[1,5-a]pyrimidine-8,1′-cyclopropane]-6-carboxamide] | 10 to 100 |
| CC1(C)CC(C(=O)Nc2cc(C#N)c(OC(F)F)nn2)c2cnc3cc(F)nn3c21 (centres unmarked) [Example 85, N-(5-cyano-6-(difluoromethoxy)pyridazin-3-yl)-2-fluoro-8,8-dimethyl-7,8-dihydro-6H-cyclopenta[e]pyrazolo[1,5-a]pyrimidine-6-carboxamide] | 100 to 1000 |
| CC1(C)CC(C(=O)Nc2cnc(C(=O)NC3CC3)c(C(F)(F)F)c2)c2cnc3cc(Cl)nn3c21 (centres unmarked) [Example 112, 2-chloro-N-(6-(cyclopropylcarbamoyl)-5˜(trifluoromethyl)pyridin-3-yl)-8,8-dimethyl-7,8-dihydro-6H-cyclopenta[e]pyrazolo[1,5-a]pyrimidine-6-carboxamide] | 100 to 1000 |
| CCNC(=O)c1ncc(NC(=O)C2CC(C)(C)c3c2cnc2cc(Cl)nn32)cc1C(F)(F)F (centres unmarked) [Example 115, 2-chloro-N-(6-(ethylcarbamoyl)-5˜(trifluoromethyl)pyridin-3-yl)-8,8-dimethyl-7,8-dihydro-6H-cyclopenta[e]pyrazolo[1,5-a]pyrimidine-6-carboxamide] | 10 to 100 |
| CC1(C)CC(C(=O)Nc2cnc(C(=O)N3CCC3)c(C(F)(F)F)c2)c2cnc3cc(Cl)nn3c21 (centres unmarked) [Example 118, N-(6-(azetidine-1-carbonyl)-5˜(trifluoromethyl)pyridin-3-yl)-2-chloro-8,8-dimethyl-7,8-dihydro-6H-cyclopenta[e]pyrazolo[1,5-a]pyrimidine-6-carboxamide] | 10 to 100 |
| CC1(C)CC(C(=O)Nc2cnc(-n3cc(C4COC4)nn3)c(Cl)c2)c2cnc3cc(Cl)nn3c21 (centres unmarked) [Example 119, 2-chloro-N-(5-chloro-6-(4-(oxetan-3-yl)-1H-1,2,3-triazol-1-yl)pyridin-3-yl)-8,8-dimethyl-7,8-dihydro-6H-cyclopenta[e]pyrazolo[1,5-a]pyrimidine-6-carboxamide] | 100 to 1000 |
| CC1(C)CC(C(=O)Nc2cnc(-c3nnn(C4COC4)n3)c(Cl)c2)c2cnc3cc(Cl)nn3c21 (centres unmarked) [Example 162, 2-chloro-N-(5-chloro-6-(2-(oxetan-3-yl)-2H-tetrazol-5-yl)pyridin-3-yl)-8,8-dimethyl-7,8-dihydro-6H-cyclopenta[e]pyrazolo[1,5-a]pyrimidine-6-carboxamide] | 10 to 100 |
| CC1(C)CC(C(=O)Nc2cnc(-c3nnnn3C3COC3)c(Cl)c2)c2cnc3cc(Cl)nn3c21 (centres unmarked) [Example 163, 2-chloro-N-(5-chloro-6-(1-(oxetan-3-yl)-1H-tetrazol-5-yl)pyridin-3-yl)-8,8-dimethyl-7,8-dihydro-6H-cyclopenta[e]pyrazolo[1,5-a]pyrimidine-6-carboxamide] | 100 to 1000 |
| CC1(C)CC(C(=O)Nc2cnc(C(=O)N3CC(F)(F)C3)c(C(F)(F)F)c2)c2cnc3cc(Cl)nn3c21 (centres unmarked) [Example 164, 2-chloro-N-(6-(3,3-difluoroazetidine-1-carbonyl)-5˜(trifluoromethyl)pyridin-3-yl)-8,8-dimethyl-7,8-dihydro-6H-cyclopenta[e]pyrazolo[1,5-a]pyrimidine-6-carboxamide] | 100 to 1000 |
| CC(C)(C)C1OC(=O)c2cc(NC(=O)C3CC4(CCC4)c4c3cnc3cc(F)nn43)cnc21 (centres unmarked) [Example 166, N-(7-(tert-butyl)-5-oxo-5,7-dihydrofuro[3,4-b]pyridin-3-yl)-2′-fluoro-6′,7′-dihydrospiro[cyclobutane-1,8′-cyclopenta[e]pyrazolo[1,5-a]pyrimidine]-6′-carboxamide] | ≥ 1000 |
